Measured values published in PMC7010297, “How the initiating ribosome copes with ppGpp to translate mRNAs” (PLoS Biology, 2020).
Several values for one entry are separate records, joined by “and”; a condition that tells them apart may be missing. Identical values can stand only once. Like-named read-outs stand apart in the source and are kept apart here.

Tests used:
30S-bound IF2 (30S IC) = target: T1, 30S-bound IF2 (30S IC) (Escherichia coli, UniProt P0A705); assay: ppGpp (or GDP) to GTP competitive assay for 30S IC formation by MST; type: binding; conditions: for IC50: read-out: IC50 of 30S IC formation
T1 construct: 6xHis (N); made in house
T1 sequence (P0A705 whole entry, looked up): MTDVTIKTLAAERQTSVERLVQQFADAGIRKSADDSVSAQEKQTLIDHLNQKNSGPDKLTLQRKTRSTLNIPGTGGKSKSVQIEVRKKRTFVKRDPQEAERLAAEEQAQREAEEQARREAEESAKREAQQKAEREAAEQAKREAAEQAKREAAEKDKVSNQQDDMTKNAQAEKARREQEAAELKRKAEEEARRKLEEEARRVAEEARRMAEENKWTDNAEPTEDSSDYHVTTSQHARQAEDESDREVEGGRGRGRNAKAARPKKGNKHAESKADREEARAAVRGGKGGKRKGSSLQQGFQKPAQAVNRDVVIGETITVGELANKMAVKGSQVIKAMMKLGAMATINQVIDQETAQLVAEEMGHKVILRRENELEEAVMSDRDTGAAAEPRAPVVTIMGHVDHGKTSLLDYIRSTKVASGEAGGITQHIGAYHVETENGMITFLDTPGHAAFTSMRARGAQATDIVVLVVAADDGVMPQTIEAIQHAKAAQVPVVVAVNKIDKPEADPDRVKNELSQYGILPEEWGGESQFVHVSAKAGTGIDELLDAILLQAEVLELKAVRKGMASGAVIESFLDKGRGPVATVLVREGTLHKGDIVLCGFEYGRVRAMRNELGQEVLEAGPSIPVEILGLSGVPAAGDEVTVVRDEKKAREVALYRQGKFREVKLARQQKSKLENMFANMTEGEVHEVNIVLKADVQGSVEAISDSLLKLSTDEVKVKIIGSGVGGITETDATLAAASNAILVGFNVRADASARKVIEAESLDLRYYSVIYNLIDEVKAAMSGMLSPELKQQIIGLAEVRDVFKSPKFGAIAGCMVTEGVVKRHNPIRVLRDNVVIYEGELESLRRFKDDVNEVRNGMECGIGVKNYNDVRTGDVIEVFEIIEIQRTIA
Protocol: MST was calculated from the respective fluorescence time dependencies (S3 Fig). […] Symbols as in (B). […] Continuous lines indicate nonlinear regression fittings with quadratic (B and E) or same-site competition (G) functions. Three measurements were performed; mean and standard deviations are plotted (S1 Data).
[…] Symbols are as indicated, 3 measurements were performed, and mean and standard deviation are plotted (S1 Data). Continuous lines show nonlinear regression fittings with a same-site inhibition model. […] (PDF) Click here for additional data file.

70S IC = target: T2, 70S IC (Escherichia coli, UniProt P0A705); assay: 70S IC formation by Bpy-tRNAi accommodation, stopped-flow; type: biochemical; set-up: K1, best-fit value: unit not given here; conditions: for A0, best-fit value / A1, best-fit value / K1, best-fit value / k2, best-fit value: fit Y=A0+A1*exp(-K1*x)+k2*x; for kfast (s-1) Avg: fluorescence
T2 construct: 6xHis (N); made in house
T2 sequence (P0A705 whole entry, looked up): as above
How it was run: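 Stopped-flow at 25 °C: 0.2 μM 30S ICs mixed with 0.6 μM 50S subunits; pre-IC formation followed by 90° light scattering (excitation 430 nm), accommodation by Bpy-tRNAi fluorescence (excitation 470 nm, 495-nm longpass). Averaged traces fitted by single or double exponentials to give kapp.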

IF2-bound 30S IC = target: T3, IF2-bound 30S IC (Escherichia coli, UniProt P0A705); assay: 30S IC formation by MST, guanosine nucleotide titration; type: binding; conditions: for MST Average / MST Replicates (a.u.): Fig 2B (GDP/ppGpp series);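 as to MST Average: lower thermophoresis signal means Bpy-tRNAi dissociation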;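 as to MST Replicates (a.u.): lower thermophoresis signal means Bpy-tRNAi dissociation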
T3 construct: 6xHis (N); made in house
T3 sequence (P0A705 whole entry, looked up): as above
How it was run: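 Binding of fluorescently labelled initiator tRNA (Bpy-tRNAi) to E. coli 30S subunits followed by microscale thermophoresis, titrating guanosine nucleotides at constant 1 μM IF2. Dissociation constants from quadratic nonlinear fits of Ff/Fi versus ligand concentration; three measurements, mean ± SD.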

## Nc1nc2c(ncn2[C@@H]2O[C@H](COP(=O)(O)OP(=O)(O)O)[C@@H](OP(=O)(O)OP(=O)(O)O)[C@H]2O)c(=O)[nH]1 [ppGpp]
30S-bound IF2 (30S IC); mTufA, Log [ppGpp] 2.40
  MST Average: 1030.04 a.u.
30S-bound IF2 (30S IC); mTufA, Log [ppGpp] 2.70
  MST Average: 1004.77 a.u.
30S-bound IF2 (30S IC); mTufA, Log [ppGpp] -0.01
  MST Average: 1139.93 a.u.
30S-bound IF2 (30S IC); mTufA, Log [ppGpp] -0.31
  MST Average: 1146.28 a.u.
30S-bound IF2 (30S IC); mTufA, Log [ppGpp] -0.61
  MST Average: 1160.80 a.u.
30S-bound IF2 (30S IC); mInfA, competition with 50 μM GTP
  IC50: 29 ± 1 µM
30S-bound IF2 (30S IC); mMF1, competition with 50 μM GTP
  IC50: 8.6 ± 0.2 µM
30S-bound IF2 (30S IC); mTufA with SRs I–III removed (+371)
  IC50: 50 ± 5 µM
30S-bound IF2 (30S IC); mTufA, competition with 50 μM GTP
  IC50: 132 ± 1 µM
70S IC; 0.2 mM nucleotide, no GTP
  efficiency (amplitude) of 70S IC formation (Bpy-tRNAi accommodation): reduced efficiencies
70S IC; mInfA
  A0, best-fit value: 0.98
  A1, best-fit value: 0.01
  K1, best-fit value: 1.82
  k2, best-fit value: -0.00033
70S IC; mMF1
  A0, best-fit value: 0.97
  A1, best-fit value: 0.0267
  K1, best-fit value: 1.27
  k2, best-fit value: -0.00023
70S IC; mRNA mInfA
  Fluorescence Amplitude Avg: 0.010
  kfast (s-1) Avg: 1.82 s⁻¹
70S IC; mRNA mMF1
  Fluorescence Amplitude Avg: 0.027
  kfast (s-1) Avg: 1.27 s⁻¹
70S IC; mRNA mTufA
  Fluorescence Amplitude Avg: 0.043
  kfast (s-1) Avg: 3.37 s⁻¹
70S IC; mTufA
  A0, best-fit value: 0.96
  A1, best-fit value: 0.0429
  K1, best-fit value: 3.37
  k2, best-fit value: -0.00059
IF2-bound 30S IC; nucleotide 0.13 µM
  MST Average: 936.81 a.u.
IF2-bound 30S IC; nucleotide 0.13 µM, constant IF2 (1 μM)
  MST Replicates (a.u.): 935.73 a.u. and 937.32 a.u. and 936.20 a.u. and 937.97 a.u.
IF2-bound 30S IC; nucleotide 0.25 µM
  MST Average: 935.17 a.u.
  MST Replicates (a.u.): 933.09 a.u. and 935.35 a.u. and 935.04 a.u. and 937.21 a.u.
IF2-bound 30S IC; nucleotide 0.50 µM
  MST Average: 935.42 a.u.
  MST Replicates (a.u.): 934.19 a.u. and 935.54 a.u. and 934.92 a.u. and 937.01 a.u.
IF2-bound 30S IC; nucleotide 1.00 µM
  MST Average: 934.04 a.u.
  MST Replicates (a.u.): 932.40 a.u. and 934.21 a.u. and 934.12 a.u. and 935.41 a.u.
IF2-bound 30S IC; nucleotide 2.00 µM
  MST Average: 933.55 a.u.
  MST Replicates (a.u.): 931.48 a.u. and 933.31 a.u. and 934.38 a.u. and 935.04 a.u.
IF2-bound 30S IC; nucleotide 4.00 µM
  MST Average: 931.78 a.u.
  MST Replicates (a.u.): 930.04 a.u. and 931.00 a.u. and 932.61 a.u. and 933.45 a.u.
IF2-bound 30S IC; nucleotide 8.00 µM
  MST Average: 932.68 a.u.
  MST Replicates (a.u.): 930.98 a.u. and 932.59 a.u. and 933.05 a.u. and 934.12 a.u.
IF2-bound 30S IC; nucleotide 16.00 µM
  MST Average: 932.30 a.u.
  MST Replicates (a.u.): 931.44 a.u. and 932.29 a.u. and 931.81 a.u. and 933.65 a.u.
IF2-bound 30S IC; nucleotide 31.00 µM
  MST Average: 930.81 a.u.
  MST Replicates (a.u.): 928.79 a.u. and 930.49 a.u. and 930.93 a.u. and 933.04 a.u.
IF2-bound 30S IC; nucleotide 62.00 µM
  MST Average: 932.86 a.u.
  MST Replicates (a.u.): 931.23 a.u. and 932.53 a.u. and 932.57 a.u. and 935.11 a.u.
IF2-bound 30S IC; nucleotide 125.00 µM
  MST Average: 932.91 a.u.
  MST Replicates (a.u.): 931.17 a.u. and 932.39 a.u. and 933.25 a.u. and 934.84 a.u.
IF2-bound 30S IC; constant IF2 (1 μM)
  promotion of Bpy-tRNAi binding (thermophoresis) in guanosine nucleotide titration: failed to promote Bpy-tRNAi binding at any concentration
